“Also recorded” adds a separate entry of the source. Structures can show the parent of a compound that is named as a salt. Where two headings read alike, the source gives them in different places.
Tests used:
sciatic nerve [1] = test: Rat sciatic nerve block: motor function (extensor postural thrust); assay type: in vivo
Description: The rats were assigned to treatments via block randomization with a block size of 8. All rats were anesthetized by inhalation of 1-2% of sevoflurane (Abbott Laboratory, North Chicago, Ill.) until no withdrawal to pinch of the leg occurred (by forceps). […] All drugs were given alone or co-administered with capsaicin at 0.05%/1.6 mM. Co-administration of capsaicin was performed either 10 minutes after the first drug or simultaneously (e.g., mixed with the local anesthetic). The vehicle control group received local anesthetic followed by injection of vehicle 10 minutes later. Capsaicin was also injected alone as was normal saline. Each drug was injected was injected in a volume of 0.2 mL. The experimenter was blinded to the drug used, but was not blinded to the administration of a second drug 10 minutes later which was either capsaicin or vehicle alone.
The effects of local anesthetics and capsaicin on motor function and nociception were evaluated. Rats were examined before injection for baseline functions, and at 10, 20, 30, 60, and 90 minutes and 2, 3, 6, 12, 24, and 36 hours after drug administration. Motor function was assayed by holding the rat upright with the control hind limb extended so that the distal metatarsus and toes of the target leg supported the animal's weight; the extensor postural thrust was recorded as the force (in grams) applied by each of the two hind limbs to a digital platform balance (Ohaus Lopro; Fisher Scientific, Florham Park, N.J.). The reduction in this force, representing reduced extensor-muscle contraction caused by motor block, was calculated as a percentage of the control force (pre-injection control value=145 to 165 g). The percent reduction in force was assigned a ‘range’ score: 0=no block (or baseline); 1=minimal block, force between the pre-injection control value of 100% and 50%; 2=moderate block, force between 50% of the pre-injection control value and 20 g (˜20 g represented the approximate weight of the flaccid limb); 3=complete block, force 20 g or less.
For both nociceptive and motor assessment, the examination was repeated three times at each time point and reported as an average of the three exams.

sciatic nerve [2] = test: Rat sciatic nerve block: nociception (nocifensive withdrawal reflex and vocalization to skin pinch); assay type: in vivo; details: for dose-response of block, in words: 0.0625, 0.125 and 0.25%, injection followed by capsaicin; for kind of blockade (nociceptive vs motor), in words: local anesthetic with injection of capsaicin 0.05% 10 minutes later; for effect of vehicle on block, in words: vehicle (10% ethanol, 10% Tween 80, 80% saline) injected 10 min after the drug
[3] = system: cutaneous trunci muscle reflex; assay type: in vivo, rat
Description: (§1) It was hypothesized that the combined application of amitriptyline and capsaicin as a transdermal patch will produce prolonged cutaneous analgesia compared to amitriptyline alone. Male Sprague-Dawley rats (weights 250-300 g) were assigned to five treatment groups (n=6-8). Transdermal patches containing amitriptyline with different concentrations of capsaicin were applied to the rats' shaved backs: 2.5% amitriptyline alone (control group) and in combinations with 0.05%, 0.15%, 1, and 8% capsaicin for 3 hours. Behavioral testing for cutaneous nociception was conducted before and after patch removal, using the cutaneous trunci muscle reflex (CTMR). In addition, skin appearance was assessed to determine irritation by the formulation.

skin = test: Skin appearance / irritation after transdermal patch; assay type: in vivo, rat
Description: as §1

sciatic nerve [4] = details: followed by capsaicin; cited from earlier work
[5] = 0.0625% drug + 0.05% capsaicin (10 min apart)
[6] = 0.0625% drug alone, 0.2 mL at sciatic notch
[7] = 0.125% drug + 0.05% capsaicin (10 min apart)
[8] = 0.125% drug + 0.05% capsaicin (mixed)
[9] = 0.125% drug + vehicle (10 min apart)
[10] = 0.25% drug + 0.05% capsaicin (10 min apart)
[11] = 2.5% amitriptyline patch alone, applied 3 hours
[12] = 0.25% drug + 0.05% capsaicin (mixed)
[13] = 0.25% drug + vehicle (10 min apart)
[14] = 2% drug + 0.05% capsaicin (10 min apart)
[15] = 2% drug + 0.05% capsaicin (mixed)
[16] = 2% drug + vehicle (10 min apart)
[17] = 0.125% solution administered alone

| SMILES | Complete recovery time, Motor, Mean (sciatic nerve [1]; [5]) [h] | Complete recovery time, Motor, Mean (sciatic nerve [1]; [6]) [h] | Complete recovery time, Motor, Mean (sciatic nerve [1]; [7]) [h] | Complete recovery time, Motor, Mean (sciatic nerve [1]; [8]) [h] | Complete recovery time, Motor, Mean (sciatic nerve [1]; [9]) [h] | Complete recovery time, Motor, Mean (sciatic nerve [1]; 0.125% drug alone) [h] | Complete recovery time, Motor, Mean (sciatic nerve [1]; [10]) [h] | Complete recovery time, Motor, Mean (sciatic nerve [1]; 0.25% drug alone) [h] | Complete recovery time, Nociception, Mean (sciatic nerve [2]; [5]) [h] | Complete recovery time, Nociception, Mean (sciatic nerve [2]; [6]) [h] | dose-response of block, in words (sciatic nerve [2]) | Complete recovery time, Nociception, Mean (sciatic nerve [2]; [7]) [h] | Complete recovery time, Nociception, Mean (sciatic nerve [2]; [8]) [h] | Complete recovery time, Nociception, Mean (sciatic nerve [2]; [9]) [h] | Complete recovery time, Nociception, Mean (sciatic nerve [2]; 0.125% drug alone) [h] | Complete recovery time, Nociception, Mean (sciatic nerve [2]; [10]) [h] | Complete recovery time, Nociception, Mean (sciatic nerve [2]; 0.25% drug alone) [h] | kind of blockade (nociceptive vs motor), in words (sciatic nerve [2]; hydrochloride) | kind of blockade (nociceptive vs motor), in words (sciatic nerve [2]) | effect of vehicle on block, in words (sciatic nerve [2]) | other results |
| --- | --- | --- | --- | --- | --- | --- | --- | --- | --- | --- | --- | --- | --- | --- | --- | --- | --- | --- | --- | --- | --- |
| CN(C)CCC=C1c2ccccc2CCc2ccccc21 [Amitriptyline, amitriptyline hydrochloride] | 1.38 | 0.44 | 3.25 | 0.44 | 2.62 | 3.44 | 2.31 | 9.13 | 2.88 | 0.25 | dose-dependent and predominantly nociceptive block | 17.25 | 2.69 | 2.13 | 4.56 | 33.37 | 11.25 | predominantly nociceptive-specific blockade; also recorded: large differential block |  |  | effect on motor block, in words (sciatic nerve [1]; 0.25%, followed by capsaicin): motor block decreased; effect on motor block, in words (sciatic nerve [1]; capsaicin given simultaneously with the local anesthetic, hydrochloride): significantly decreased the motor blockade; also recorded: decreased the absolute duration of motor block; complete block to pinprick (duration) [3, 11]: 4.5 h; time to full recovery [3, 11]: 96 h; complete block to pinprick (duration) ([3]; 3 h): 6 to 9 h; time to full recovery ([3]; 3 h): 216 h; skin effects, in words (skin; 2.5% amitriptyline patch alone): causes toxic effects in skin; skin effects, in words (skin; amitriptyline 2.5% with capsaicin 8% patch): no adverse skin reactions |
| CCCCN1CCCCC1C(=O)Nc1c(C)cccc1C (stereo not shown) [Bupivacaine, bupivacaine hydrochloride] |  |  |  |  |  |  | 2.31 | 2.31 |  |  |  |  |  |  |  | 23.14 | 2.50 |  | predominantly nociceptive-specific blockade | intensification of both motor and nociceptive block | Complete recovery time, Motor, Mean (sciatic nerve [1]; [12]): 1.56 h; Complete recovery time, Motor, Mean (sciatic nerve [1]; [13]): 2.87 h; effect on motor block, in words (sciatic nerve [1]; capsaicin given simultaneously with the local anesthetic): decreased the absolute duration of motor block; Complete recovery time, Nociception, Mean (sciatic nerve [2]; [12]): 1.63 h; Complete recovery time, Nociception, Mean (sciatic nerve [2]; [13]): 4.75 h; nociceptive vs motor blockade, in words (sciatic nerve [2]; 0.25%, followed by capsaicin or vehicle 10 minutes later): significantly increased the nociceptive blockade over motor blockade |
| CCN(CC)CC(=O)Nc1c(C)cccc1C [Lidocaine, lidocaine hydrochloride] |  |  |  |  |  |  |  |  |  |  |  |  |  |  |  |  |  | smallest differential block among all drug combinations |  | intensification of both motor and nociceptive block | Complete recovery time, Motor, Mean (sciatic nerve [1]; [14]): 1.69 h; Complete recovery time, Motor, Mean (sciatic nerve [1]; [15]): 1.50 h; Complete recovery time, Motor, Mean (sciatic nerve [1]; [16]): 2.00 h; Complete recovery time, Motor, Mean (sciatic nerve [1]; 2% drug alone): 1.13 h; Complete recovery time, Nociception, Mean (sciatic nerve [2]; [14]): 7.62 h; Complete recovery time, Nociception, Mean (sciatic nerve [2]; [15]): 3.00 h; Complete recovery time, Nociception, Mean (sciatic nerve [2]; [16]): 2.12 h; Complete recovery time, Nociception, Mean (sciatic nerve [2]; 2% drug alone): 1.25 h; motor and nociceptive block, in words (sciatic nerve [2]; 2% given alone): complete but relatively short-lasting motor and nociceptive block; kind of blockade (nociceptive vs motor), in words (sciatic nerve [2]; listed as lidocaine, hydrochloride): predominantly nociceptive-specific blockade |
| C[N+](C)(C)CCC=C1c2ccccc2CCc2ccccc21 [N-Methyl Amitriptyline, N-methyl amitriptyline] | 0.06 | 0.12 | 0.04 | 0.12 | 0.38 | 0.31 | 1.81 | 1.44 | 0.13 | 0.00 | dose-dependent and predominantly nociceptive block | 11.63 | 10.87 | 0.81 | 0.67 | 33.00 | 3.63 |  | predominantly nociceptive-specific blockade |  | duration of motor blockade (sciatic nerve [1]; [17]): < 1 h; kind of blockade, in words (sciatic nerve [2]; 0.125% + capsaicin 0.05%, 10 minutes after or injected simultaneously): very prolonged sensory-selective block; duration of nociceptive blockade (sciatic nerve [2]; [17]): < 1 h |
| CC[N+](CC)(CC)CC(=O)Nc1c(C)cccc1C [QX-314] |  |  |  |  |  |  |  |  |  |  |  |  |  |  |  |  |  |  |  |  | kind of sciatic nerve block, in words (sciatic nerve [4]): nociceptor-selective sciatic nerve block |
| COc1cc(CNC(=O)CCCCC=CC(C)C)ccc1O [capsaicin, 8-methyl-N-vanillyl-6-nonenamide] |  |  |  |  |  |  |  |  |  |  |  |  |  |  |  |  |  |  |  |  | motor and nociceptive block, in words (sciatic nerve [2]; injected alone, 0.05%, 0.2 mL): no detectable block |

Reference: US20100190860A1, “METHODS FOR SELECTIVELY ENHANCING ANTINOCICEPTIVE POTENCY OF LOCAL ANESTHETICS” (The Brigham and Women's Hospital, Inc., priority 2009, published 2010)
